Source: patent US10259852B2, “Conjugate comprising P21 protein for the treatment of cancer” (ANASTASIS BIOTEC LIMITED, priority 2005, dated 2019)

Key:
HeLa = assay: Cell translocation experiment; type: cell-based, human; details: incubated 10 and 60 min, various dilutions, 37° C.
Method: (§1) The production of the fusion protein allowed a cell translocation experiment to be performed, to test the ability of the antennapedia-containing fusion protein to translocate across biological membranes. Two cell lines were used in this experiment, ASPC1 and HeLa (ASPC1—human pancreatic adenocarcinoma, HeLa—human cervical adenocarcinoma). The protein was incubated for 10 and 60 min on cells in various dilutions at 37° C. Translocation of the fusion protein was evident in both cell lines, even after only ten minutes of incubation.

ASPC1 = assay: Cell translocation experiment; type: cell-based, human; details: incubated 10 and 60 min, various dilutions, 37° C.
Method: as §1

P21 protein: P21 tumour suppressor protein expressed alone, without translocation factor; human P21 is SEQ ID NO:1
Translocation across cells (HeLa): did not appear to translocate | Translocation across cells (ASPC1): did not appear to translocate
